Data set [1] has as its system rash caused by small molecule EGFR inhibitors. The data set is described as follows: Treatment of rash caused by small molecule EGFR inhibitors, topical ointment, rat model. In kind it is in vivo, SD rats. The protocol:
An Experiment to Verify the Treatment of Rash Caused by Small Molecule EGFR Inhibitors with Topical Administration of Compounds of the Present Application on a Rat Animal Model After the SD rats were fed and adapted for one week (about 200 g), the rats were divided into 10 rats per group. The hair on the back of rats was gently removed with an electric razor one day before the experiment, and then an intragastric administration test was carried out. EGFR inhibitors were dissolved in a sterile aqueous solution, and diluted with PBS buffer; the amount of each gavage was not more than 2 mL, and the dosage was shown in Table 3. […] The experiments were divided into the administration group with the compound of the present application and the control group. During the treatment experiment, EGFR inhibitors were intragastrically administered continuously every day. After the gavage, the administration group applied the compound ointment of the present application on the back (about 3 cm*3 cm) of rats, and the control group applied blank matrix ointment on the back (about 3 cm*3 cm); after application, the rats were fixed with a fixed cyclinder for about 4 hours, and then the rats were released, with the residual drug at the application site wiped off with clean water, and put back into the cage. The frequency of intragastric administration of EGFR inhibitors is shown in Table 3, but the compounds of the present application and blank ointment are applied only once a day. […] Table 3 lists the animal experiment combinations of various small molecule EGFR inhibitors and the compound ointment of the present application, as well as the corresponding experiment results (wherein, the value in the control rate column=the number of rats whose rash is milder in the administration group than that in the control group/the total number of rats in the administration group×100%).

Data set [2] relates to skin contact delayed-type hypersensitivity. In words: Skin contact delayed-type hypersensitivity (DNFB) response test, ear swelling, topical ointment. It counts as in vivo. To be noted: topical to ears, DNFB DTH, Balb/c mice, compared to blank ointment. The method in brief:
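Balb/c mice sensitized with DNFB on the back on Days 0–1, then challenged on Day 5 with 0.2% DNFB on both ears. Ear thickness measured by micrometer 24–72 h after challenge. Compound ointment applied topically over Days −1–7 or Days 4–7; effect is the reduction in ear swelling versus blank ointment, with ≥20% deemed effective.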

The nature of data set [3]: Thermodynamic solubility assay (PBS pH 6.5; isopropyl myristate). Particulars: thermodynamic from solid. In kind it is physicochemical. Here is the method:
Thermodynamic Solubility Assay
Weigh not less than 2 mg of the sample powder into a Whatman Mini-UniPrep vial. If it is required to test the thermodynamic solubility of samples in multiple buffers, a separate vial is needed for each test; add 450 μL of buffer to each Whatman Mini-UniPrep vial, respectively; after that, install the piston cap of Whatman Mini-UniPrep and press it above the liquid level, so that the filter is in contact with the buffer during shaking; shake the solubility sample by vortexing for 1 minute.
Inject 3 UV standard solutions from low to high concentrations into the HPLC, then inject the diluent and supernatant of the test compound, with two replicates of test sample; and integrate the UV peaks. Simulate a standard curve and calculate the thermodynamic solubility of the sample.

≈ marks a conversion by molar mass, not a printed value. Like-named read-outs stand apart in the source and are kept apart here.

By solubility (thermodynamic) is commonly meant solubility found after equilibrating the solid with the medium. Take `C[C@@H]1CCN(C(=O)CC#N)C[C@@H]1N(C)c1ncnc2c1ccn2C(=O)N(C)CCOC(=O)C1CCCO1` (stereo partly drawn) [Compound A7]: the “Control Rate” value in data set [1] (Afatinib 40 mg/kg once a day, 6 dosing modelling days, ointment 0.1 wt% once a day) was 20%; in data set [1] (Afatinib 40 mg/kg once a day, 6 dosing modelling days, ointment 3.0 wt% once a day) it was 60%; in data set [1] (BPI-7711 60 mg/kg once a day, 6 dosing modelling days, ointment 3.0 wt% once a day), 70%; in data set [1] (EAI045 80 mg/kg once a day, 8 dosing modelling days, ointment 1.0 wt% once a day), 50%; in data set [1] (EAI045 80 mg/kg once a day, 8 dosing modelling days, ointment 5.0 wt% once a day), 80%; in data set [1] (Larotinib 20 mg/kg once a day, 6 dosing modelling days, ointment 3.0 wt% once a day) it was 6%. Besides, the “Control Rate” value is 10% in data set [1] (Osimertinib 60 mg/kg twice a day, 7 dosing modelling days, ointment 3.0 wt% once a day) and 70% in data set [1] (Osimertinib 60 mg/kg twice a day, 7 dosing modelling days, ointment 10.0 wt% once a day). The “Reduction Rate of Ear Swelling” value in data set [2] (ointment 0.05 wt%) stood at 18%; in data set [2] (ointment 0.1 wt%) it was 22%; in data set [2] (ointment 1.0 wt%), 27%; in data set [2] (ointment 5.0 wt%), 35%; in data set [2] (ointment 10.0 wt%) it was 42%. Further, the solubility (thermodynamic) at 24 h in data set [3] (aqueous buffer, PBS buffer pH 6.5, about 25° C., read-out: Thermodynamic Solubility pH = 6.5) is 4390 µg/mL (≈ 8.58 mM); in data set [3] (oil or lipid, isopropyl myristate as vehicle, about 25° C., read-out: Thermodynamic Solubility in Isopropyl Myristate), 375 µg/mL (≈ 0.733 mM).
